Measured values: patent publication US8729228B2, “Method of producing a modified (poly) peptide” (University of Geneva, priority 2005, dated 2014)
Residues, ends and D or L forms follow the SMILES beside them. *: point of attachment. OBn = c1ccc(CO*)cc1

Tests used:
[1] = tested on: α-smooth muscle-actin (α-SMA); test: α-SMA stress fibre assay in α-SMA-EGFP transfected REF-52 cells (confocal microscopy); type: cell-based, Rat; conditions: for penetration into the cell, monitored by detection of the expected biological activity: extent measured by comparison with the biological activity of standards
Procedure: FIG. 15: (a) Constructs designed to deliver the Ac-EEED peptide into cells through a semi-permanent carboxy esterification strategy. (b) Rat embryonic fibroblasts (REF-52 cells) transfected with the α-SMA-EGFP construct (Clement et al., J Cell Sci. 118, 1395-1404 (2005)) were trypsinized, plated on coverslips for 1 days in DMEM/2% FCS and treated with SMA-Peptide [Ac-E(OBzl)-E(OBzl)-E(OBzl)-D(OBzl)-K(Ac)-CONH2] (5 μg/ml) for 45 min in DMEM without FCS (37 C, incubator). Cells were the rinsed in DMEM, fixed with 1% PFA, and mounted for confocal microscopy (LSM510, Carl Zeiss) observation. α-SMA-EGFP transfected cells were either untreated (control; left), or treated for 45 minutes with SMA-Peptide [Ac-E(OBzl)-E(OBzl)-E(OBzl)-D(OBzl)-K(Ac)-CONH2] (right).
This example relates to delivery of the peptide using a semi-permanent carboxy esterification strategy of a synthetic peptide incorporating a C-terminal lysine residue, whose carboxy terminus is amidated and whose epsilon amino group is either acetylated or used as a handle to attach a tracer (fluorochrome, biotin, etc, FIG. 15(a)). Four constructs have been tested, varying the lipophilicity of the protecting ester moiety.

[2] = molecular target: α-smooth muscle-actin (α-SMA) (Homo sapiens, UniProt P62736); conditions: microinjection (Chaponnier et al. 1995) and fusion to a PTD (Hinz et al. 2002); cited from earlier work

Compound | α-SMA positive-stress fibers ([1]; REF-52 cells transfected with α-SMA-EGFP, 5 μg/ml for 45 min in DMEM without FCS, 37 C) | penetration into the cell, monitored by detection of the expected biological activity ([1]; listed as template) | penetration into the cell, monitored by detection of the expected biological activity ([1]; listed as template with the carboxylates esterified with benzyl groups) | blocking polymerisation of α-smooth muscle-actin (α-SMA) [2]
CC(=O)NCCCC[C@H](NC(=O)[C@H](CC(=O)OCc1ccccc1)NC(=O)[C@H](CCC(=O)OCc1ccccc1)NC(=O)[C@H](CCC(=O)OCc1ccccc1)NC(=O)[C@H](CCC(=O)OCc1ccccc1)NC(C)=O)C(N)=O [SMA-Peptide, Ac-E(OBzl)-E(OBzl)-E(OBzl)-D(OBzl)-K(Ac)-CONH2] (Ac-E(OBn)E(OBn)E(OBn)D(OBn)K(Ac)-NH2) | provokes α-SMA positive-stress fiber disappearance | incomplete | showed penetration into the cell | 
Ac-EEED |  |  |  | capable of blocking polymerisation of α-smooth muscle-actin (α-SMA)
